The source of these data is the C3SDB collision cross section collection.

The conditions of this data set: instrument: DT, single field, calibrated with Agilent tune mix (Agilent).

Structures can show the parent of a compound that is named as a salt.

Take `Nc1ncnc2c1ncn2[C@@H]1O[C@H](COP(=O)(O)OS(=O)(=O)O)[C@@H](O)[C@H]1O` [Adenosine 5'-phosphosulfate]: the “collision cross section (N2)” value ([M+Na]+) is 190.4 Å² and the “collision cross section (N2)” value ([M-H]-) was 180.48 Å².
Take `Nc1ccccc1C(=O)O` [Anthranilic acid]: the “collision cross section (N2)” value came out at 118.8 Å² ([M+H-H2O]+) and 123.99 Å² ([M-H]-).
In the case of `CCCCCCCCCCCCCCCCCCCC(=O)O` [Arachidic acid], under “[M-H]-”, the “collision cross section (N2)” value was 183.41 Å².
Regarding `CCCCC/C=C\C/C=C\C/C=C\C/C=C\CCCC(=O)O` [Arachidonic Acid], where the note is “[M-H]-”, the “collision cross section (N2)” value is listed as 178.94 Å².
With `CCCCCCCCCCCCCCCCCCCCCC(=O)O` [Behenic acid], the “collision cross section (N2)” value ([M-H]-) came to 191.18 Å².
The same measure, in the same setting: for `O=C(O)c1ccccc1` [Benzoic acid] the value was 121.84 Å².
Turning to `O=P(O)(O)O[C@]1(CO)O[C@H](CO)[C@@H](O)[C@@H]1O` [Beta-D-Fructose 2-phosphate], the “collision cross section (N2)” value runs as follows: ([M+Na]+) 154 Å²; ([M-H]-) 141.51 Å².
As to `O=P(O)(O)OC[C@H]1O[C@](O)(CO)[C@@H](O)[C@@H]1O` [Beta-D-Fructose 6-phosphate], the “collision cross section (N2)” value ([M+H]+) was found to be 149.3 Å² and the “collision cross section (N2)” value ([M-H]-) amounted to 141.02 Å².
In the case of `C[N+](C)(C)CC=O` [Betaine aldehyde], the “collision cross section (N2)” value ([M+H]+) was 117.2 Å².
On to `CCCC(=O)SCCNC(=O)CCNC(=O)[C@H](O)C(C)(C)COP(=O)(O)OP(=O)(O)OC[C@H]1O[C@@H](n2cnc3c(N)ncnc32)[C@H](O)[C@@H]1OP(=O)(O)O` [Butyryl-CoA], for which the “collision cross section (N2)” value ([M+H]+) was 252.9 Å².
Take `CCCC(=O)SCCNC(=O)CCNC(=O)[C@H](O)C(C)(C)COP(=O)(O)OP(=O)(O)OC[C@H]1O[C@@H](n2cnc3c(N)ncnc32)[C@H](O)[C@@H]1OP(=O)(O)O` [Butyryl-coenzyme A]: the “collision cross section (N2)” value ([M-H]-) amounted to 253.26 Å².
On to `CC(C)CCC[C@@H](C)[C@H]1CC[C@H]2[C@@H]3CC=C4C[C@@H](OS(=O)(=O)O)CC[C@]4(C)[C@H]3CC[C@]12C` [Cholesteryl sulfate], for which the “collision cross section (N2)” value ([M-H]-) is on record as 237.01 Å².
On to `CC1=C(CCC(=O)O)c2cc3nc(cc4[nH]c(cc5[nH]c(cc1n2)c(C)c5CCC(=O)O)c(CCC(=O)O)c4C)C(CCC(=O)O)=C3C` [Coproporphyrin III], for which the “collision cross section (N2)” value is listed as 257.2 Å² ([M+H]+) and 271.13 Å² ([M-H]-).
Consider `N[C@@H](CS)C(=O)NCC(=O)O` [Cysteinylglycine], for which the “collision cross section (N2)” value ([M-H]-) turned out to be 131.77 Å².
Consider `Nc1ccn([C@@H]2O[C@H](COP(=O)(O)O)[C@@H](O)[C@H]2O)c(=O)n1` [Cytidine 5'-monophosphate], for which, where the note is “[M+H]+”, the “collision cross section (N2)” value amounted to 166.3 Å².
As to `Nc1ccn([C@@H]2O[C@H](COP(=O)(O)OP(=O)(O)OP(=O)(O)O)[C@@H](O)[C@H]2O)c(=O)n1` [Cytidine triphosphate], the “collision cross section (N2)” value ([M-H]-) is on record as 179.08 Å².
Consider `C[C@@H](N)C(=O)N[C@H](C)C(=O)O` [D-Ala-D-Ala], for which, where the note is “[M+Na]+”, the “collision cross section (N2)” value worked out at 142.8 Å².
For the compound `C[C@@H](N)C(=O)N[C@H](C)C(=O)O` [D-Alanyl-D-alanine], the “collision cross section (N2)” value ([M-H]-) worked out at 134.05 Å².
As for `OC[C@H]1OC(O)[C@H](O)[C@H](O)[C@@H]1O` (stereo partly drawn) [D-Allose], the “collision cross section (N2)” value ([M+Na]+) is listed as 143.1 Å².
Turning to `O=C(O)[C@@H](O)[C@H](O)[C@H](O)[C@@H](O)C(=O)O` [D-Galactarate], the “collision cross section (N2)” value runs as follows: ([M+Na]+) 147.3 Å²; ([M-H]-) 130.24 Å².
`O=C1O[C@H](CO)[C@@H](O)[C@H](O)[C@H]1O` [D-Glucono-1,5-lactone]: the “collision cross section (N2)” value ([M-H]-) came to 130.59 Å².
Turning to `OC[C@@H](O)[C@@H](O)[C@H](O)[C@H](O)CO` [D-Mannitol], the “collision cross section (N2)” value ([M+Na]+) is 141 Å².
For the compound `O=P(O)(O)OC1O[C@H](CO)[C@@H](O)[C@H](O)[C@@H]1O` (stereo partly drawn) [D-Mannose 1-phosphate], the “collision cross section (N2)” value runs as follows: ([M+Na]+) 158.3 Å²; ([M-H]-) 143.99 Å².
With `O=C(O)[C@H]1CCCN1` [D-Proline], the “collision cross section (N2)” value is, setting by setting: ([M+H]+) 125 Å²; ([M-H]-) 122.49 Å².
On to `O=C(COP(=O)(O)O)[C@H](O)[C@H](O)COP(=O)(O)O` [D-Ribulose 1,5-bisphosphate], for which the “collision cross section (N2)” value runs as follows: ([M+Na-2H]-) 150.9 Å²; ([M+Na]+) 163.3 Å².
Turning to `OC1OC[C@@H](O)[C@H](O)[C@H]1O` (stereo partly drawn) [D-Xylose], the “collision cross section (N2)” value ([M+Na]+) is reported as 134.6 Å².
In the case of `Nc1ncnc2c1ncn2[C@H]1C[C@H](O)[C@@H](CO)O1` [Deoxyadenosine], the “collision cross section (N2)” value runs as follows: ([M+H]+) 152.3 Å²; ([M-H]-) 152.2 Å².
In the case of `O=c1nc[nH]c2c1ncn2[C@H]1C[C@H](O)[C@@H](CO)O1` [Deoxyinosine], the “collision cross section (N2)” value stood at 151.7 Å² ([M+H]+) and 153.4 Å² ([M-H]-).
`O=P(O)(O)OC[C@H]1O[C@@H](O)C[C@@H]1O` [Deoxyribose 5-phosphate]: where the note is “[M+Na]+”, the “collision cross section (N2)” value came to 148.4 Å².
As for `CC(C)(COP(=O)(O)OP(=O)(O)OC[C@H]1O[C@@H](n2cnc3c(N)ncnc32)[C@H](O)[C@@H]1O)[C@@H](O)C(=O)NCCC(=O)NCCS` [Dephosphocoenzyme A], the “collision cross section (N2)” value runs as follows: ([M+H]+) 238.6 Å²; ([M-H]-) 232.51 Å².
As to `CC(C)[C@@H](C)/C=C/[C@@H](C)[C@H]1CC[C@H]2/C(=C/C=C3\C[C@@H](O)CC[C@@H]3C)CCC[C@]12C` [Dihydrotachysterol], the “collision cross section (N2)” value ([M+H]+) is reported as 205.8 Å².
With `CC(C)=CCOP(=O)(O)OP(=O)(O)O` [Dimethylallyl pyrophosphate], the “collision cross section (N2)” value ([M-H]-) amounted to 143.1 Å².
Regarding `OC[C@@H](O)[C@H](O)[C@H](O)[C@@H](O)CO` [Dulcitol], the “collision cross section (N2)” value reads like this: ([M+Na]+) 141.7 Å²; ([M-H]-) 128.77 Å².
As to `CC/C=C\C/C=C\C/C=C\C/C=C\C/C=C\CCCC(=O)O` [Eicosapentaenoic acid], where the note is “[M-H]-”, the “collision cross section (N2)” value is 178.53 Å².
For `C[C@]12CC[C@@H]3c4ccc(OS(=O)(=O)O)cc4CC[C@H]3[C@@H]1CCC2=O` [Estrone 3-sulfate], the “collision cross section (N2)” value ([M-H]-) was found to be 188.85 Å².
Regarding `C[C@]12CC[C@@H]3c4ccc(O)cc4CC[C@H]3[C@@H]1CCC2=O` [Estrone], the “collision cross section (N2)” value ([M+H]+) came to 164.3 Å² and the “collision cross section (N2)” value ([M-H]-) turned out to be 170.63 Å².
As to `O=c1cc(-c2ccccc2)oc2ccccc12` [Flavone], the “collision cross section (N2)” value ([M+H]+) is on record as 146.7 Å².
Turning to `Nc1nc(=O)c2nc(CNc3ccc(C(=O)N[C@@H](CCC(=O)O)C(=O)O)cc3)cnc2[nH]1` [Folate], under “[M+H]+”, the “collision cross section (N2)” value is reported as 195.5 Å².
With `C[C@@H]1OC(OP(=O)(O)OP(=O)(O)OC[C@H]2O[C@@H](n3cnc4c(=O)nc(N)[nH]c43)[C@H](O)[C@@H]2O)[C@@H](O)[C@H](O)[C@@H]1O` (stereo partly drawn) [GDP-L-Fucose], the “collision cross section (N2)” value ([M+H]+) came out at 217.2 Å² and the “collision cross section (N2)” value ([M-H]-) is listed as 206.72 Å².
On to `Nc1nc(=O)c2ncn([C@@H]3O[C@H](COP(=O)(O)OP(=O)(O)O[C@H]4O[C@H](CO)[C@@H](O)[C@H](O)[C@H]4O)[C@@H](O)[C@H]3O)c2[nH]1` [GDP-glucose], for which the “collision cross section (N2)” value stood at 218.9 Å² ([M+H]+) and 208.72 Å² ([M-H]-).
On to `Nc1nc(=O)c2ncn([C@@H]3O[C@H](COP(=O)(O)OP(=O)(O)O)[C@@H](O)[C@H]3O)c2[nH]1` [GDP], for which the “collision cross section (N2)” value ([M+H]+) is 191.5 Å².
For `OC[C@H]1O[C@H](OC2[C@@H](O)[C@H](O)C(O)[C@H](O)[C@@H]2O)[C@H](O)[C@@H](O)[C@H]1O` (some centres undefined) [Galactinol], the “collision cross section (N2)” value amounted to 168.98 Å² ([M+Na-2H]-) and 177.7 Å² ([M+Na]+).
`O=Cc1cc(O)ccc1O` [Gentisaldehyde]: the “collision cross section (N2)” value ([M+H]+) came to 122 Å² and the “collision cross section (N2)” value ([M-H]-) is 119.54 Å².
`N[C@@H](CCC(=O)N[C@@H](CSSC[C@H](NC(=O)CC[C@H](N)C(=O)O)C(=O)NCC(=O)O)C(=O)NCC(=O)O)C(=O)O` [Glutathione disulfide]: the “collision cross section (N2)” value ([M+H]+) is 224.7 Å².
On to `C[N+](C)(C)CCOP(=O)([O-])OC[C@H](O)CO` [Glycerophosphocholine], for which the “collision cross section (N2)” value ([M+H]+) is recorded as 155.5 Å².
Regarding `C[C@H](CCC(=O)NCC(=O)O)[C@H]1CC[C@H]2[C@@H]3[C@H](O)C[C@@H]4C[C@H](O)CC[C@]4(C)[C@H]3CC[C@]12C` [Glycochenodeoxycholate], the “collision cross section (N2)” value turned out to be 203.3 Å² ([M+Na]+) and 198.85 Å² ([M-H]-).
As to `C[C@H](CCC(=O)NCC(=O)O)[C@H]1CC[C@H]2[C@@H]3CC[C@@H]4C[C@H](O)CC[C@]4(C)[C@H]3C[C@H](O)[C@]12C` [Glycodeoxycholic acid], the “collision cross section (N2)” value ([M+Na]+) is listed as 203.9 Å² and the “collision cross section (N2)” value ([M-H]-) was found to be 197.81 Å².
For the compound `NC(N)=NCC(=O)O` [Guanidoacetic acid], where the note is “[M+H]+”, the “collision cross section (N2)” value came out at 124.8 Å².
Take `Nc1nc(=O)c2ncn([C@@H]3O[C@H](COP(=O)(O)OP(=O)(O)O[C@H]4O[C@H](CO)[C@@H](O)[C@H](O)[C@@H]4O)[C@@H](O)[C@H]3O)c2[nH]1` [Guanosine diphosphate mannose]: the “collision cross section (N2)” value is 220.9 Å² ([M+Na]+) and 207.35 Å² ([M-H]-).
`CC(C)(COP(=O)(O)OP(=O)(O)OC[C@H]1O[C@@H](n2cnc3c(N)ncnc32)[C@H](O)[C@@H]1OP(=O)(O)O)[C@@H](O)C(=O)NCCC(=O)NCCSC(=O)C[C@@](C)(O)CC(=O)O` [HMG-CoA]: where the note is “[M-H]-”, the “collision cross section (N2)” value was 259.35 Å².
For `NCCc1cnc[nH]1` [Histamine], for the setting “[M+H]+”, the “collision cross section (N2)” value amounted to 120 Å².
Regarding `O=C(O)CC[C@@](O)(CC(=O)O)C(=O)O` [Homocitrate], the “collision cross section (N2)” value reads like this: ([M+Na]+) 145 Å²; ([M-H]-) 129.99 Å².
